In the supplement of paper PMC10307832:

Experiments:
Assay in all cases: relative viability (nuclei count vs DMSO), 5 days (fraction); higher = more cells survive
[1] = compound: CC(C)N(CCCNC(=O)Nc1ccc(C(C)(C)C)cc1)C[C@H]1O[C@@H](n2ccc3c(N)ncnc32)[C@H](O)[C@@H]1O + CC(C)C[C@H](NC(=O)[C@H](Cc1ccccc1)NC(=O)c1cnccn1)B(O)O [Bortezomib] (partner 0.002 µM)
In short: (§1)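 Relative viability was taken as the ratio of nuclei in treated wells to nuclei in vehicle wells. Lung cancer cell lines in 1536-well plates received compounds by pin tool one day after seeding, either one drug alone or a fixed anchor-drug dose plus five library-drug doses (not always all listed) in √10 steps. Nuclei were counted on 4× images after 5 days of treatment, and values are medians of duplicate plates.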

[2] = compound: CC(C)=CC[C@@H](O)C1=CC(=O)c2c(O)ccc(O)c2C1=O [Shikonin] + COc1cc2c(Oc3ccc(NC(=O)C4(C(=O)Nc5ccc(F)cc5)CC4)cc3F)ccnc2cc1OCCCN1CCOCC1 [Foretinib] (partner 0.25 µM)
In short: as §1

[3] = compound: CC(C)=CC[C@@H](O)C1=CC(=O)c2c(O)ccc(O)c2C1=O [Shikonin] + Nc1nc2[nH]cc(CCc3ccc(C(=O)N[C@@H](CCC(=O)O)C(=O)O)cc3)c2c(=O)[nH]1 [Pemetrexed] (partner 0.2 µM)
In short: as §1

[4] = compound: CC(C)N(CCCNC(=O)Nc1ccc(C(C)(C)C)cc1)C[C@H]1O[C@@H](n2ccc3c(N)ncnc32)[C@H](O)[C@@H]1O + C[C@@H](Oc1cc(-c2cnn(C3CCNCC3)c2)cnc1N)c1c(Cl)ccc(F)c1Cl [Crizotinib] (partner 1 µM)
In short: as §1

For UMC-11, the relative viability ([1]; first compound 0.08 µM) was 0.654, the relative viability ([1]; first compound 0.253 µM) was 0.531 and the relative viability ([1]; first compound 0.8 µM) was 0.673. For the same cell line, the relative viability ([1]; first compound 2.53 µM) was 0.79, the relative viability ([1]; first compound 8 µM) was 0.617 and the relative viability ([2]; first compound 0.01 µM) was 1.02. It also gave a relative viability ([2]; first compound 0.1 µM) of 1.13, a relative viability ([2]; first compound 0.3162 µM) of 1.13 and a relative viability ([2]; first compound 1 µM) of 1.07. The relative viability ([3]; first compound 0.01 µM) was 0.813, the relative viability ([3]; first compound 0.1 µM) was 0.942 and the relative viability ([3]; first compound 0.3162 µM) was 0.836. It also gave a relative viability ([3]; first compound 1 µM) of 0.793, a relative viability ([4]; first compound 0.08 µM) of 0.579 and a relative viability ([4]; first compound 0.253 µM) of 0.706. The relative viability ([4]; first compound 0.8 µM) was 0.723, the relative viability ([4]; first compound 2.53 µM) was 0.656 and the relative viability ([4]; first compound 8 µM) was 0.636.
